Experimental data from EP0467365A2, “Use of a 5-hydroxytryptamine-3(5-HT3) receptor antagonist for the preparation of a pharmaceutical composition for treating urinary incontinence” (E.R. SQUIBB & SONS, INC., priority 1990, dated 1992).
Entries after “also recorded” stand apart in the source; their conditions may differ. Structures can show the parent of a compound that is named as a salt. Where two headings read alike, the source gives them in different places.

Assays:
Type in all cases: cell-based
[1] = test system: rabbit bladder strips; test: 5-HT-induced contraction of rabbit bladder (detrusor) strips, organ bath tension recording; conditions: for inhibition of the 5-HT contractions: atropine 10^-7M, α,β-methylene ATP 10^-6M; for antagonism of the 5-HT-induced contraction / pA2: 30 minutes exposure; for antagonism of the 5-HT-induced contraction: BRL 43694 5 x 10^-11 to 2 x 10^-10M, ICS 205930 5 x 10^-12 to 1 x 10^-10M, MDL 72222 5 x 10^-10 to 5 x 10^-9M; for pA2: antagonism of 5-HT-induced contraction, rabbit detrusor strips, Schild plot, mean ± s.e.mean; for atropine and α,β-methylene ATP-resistant component of 5-HT-induced contraction: bladder strips, in presence of atropine and α,β-methylene ATP; for effect on the contractile response to 5-HT: ketanserine 10^-7 to 10^-6M, methysergide and metitepine 10^-8 to 10^-7M, anterior detrusor of female rabbits
[2] = test system: urethra; test: 5-HT-induced contraction of rabbit urethra strips, organ bath tension recording; conditions: 30-second application, 10^-6 to 10^-3M
[3] = test system: rabbit bladder; test: Contractile response of rabbit bladder strips to electrical field stimulation of intrinsic nerves; conditions: for effect on the response to field stimulation: α,β-methylene ATP dose-dependent, all frequencies

NCCc1c[nH]c2ccc(O)cc12 [5-HT, 5-Hydroxytryptamine creatinine sulphate complex]
contraction in the rabbit bladder ([1]; 30-second application, 10^-8 to 10^-3M): dose-dependent contraction | contraction in the urethra [2]: dose-dependent contraction

CN1[C@@H]2CC[C@H]1CC(OC(=O)C(CO)c1ccccc1)C2.CN1[C@@H]2CC[C@H]1CC(OC(=O)C(CO)c1ccccc1)C2.O=S(=O)(O)O (stereo partly drawn) [Atropine, Atropine sulphate]
inhibition of the response to field stimulation (maximum) ([3]; 20 minute pretreatment, 10^-8 to 10^-6M, maximum at high frequencies): 40% | control response to field stimulation still persisting ([3]; atropine 10^-8 to 10^-6M, 5-50 Hz, posterior detrusor of male rabbits): approximately 60% | effect on the response to field stimulation ([3]; atropine 10^-8 to 10^-6M): only partially inhibited | inhibition of the 5-HT contractions [1]: partially inhibited

CN1C2CCCC1CC(NC(=O)c1nn(C)c3ccccc13)C2 (stereo not drawn) [BRL 43694, [endo]N-(9-methyl-9-azabicyclo-[3,3,1]-non-3-yl)-1-methyl-1H-indazole-3-carboxamide hydrochloride]
antagonism of the 5-HT-induced contraction ([1]; hydrochloride): strongly and competitively antagonized; also recorded: dose-dependent inhibition | antagonism of the 5-HT-induced contraction ([1]; listed as BRL 43695, hydrochloride): effective at blocking | pA2 [1]: 10.5 ± 0.01 | atropine and α,β-methylene ATP-resistant component of 5-HT-induced contraction [1]: not abolished

CN1[C@@H]2CC[C@H]1C[C@@H](OC(=O)c1c[nH]c3ccccc13)C2 [ICS 205930, 3a-tropanyl-1 H-indole-3-carboxylic acid ester]
antagonism of the 5-HT-induced contraction [1]: strongly and competitively antagonized; also recorded: effective at blocking | antagonism of the 5-HT-induced contraction ([1]; listed as ICS 205-930): most potent antagonistic effect | pA2 [1]: 12.5 ± 0.36 | atropine and α,β-methylene ATP-resistant component of 5-HT-induced contraction [1]: not abolished

CN1[C@@H]2CC[C@H]1C[C@@H](OC(=O)c1cc(Cl)cc(Cl)c1)C2 [MDL 72222, laH,3a,5aH-tropan-3-yl-3,5-dichlorobenzoate]
effect on the contraction to field stimulation ([3]; 10^-7M): no effect | antagonism of the 5-HT-induced contraction [1]: strongly and competitively antagonized; also recorded: dose-dependent inhibition; also recorded: effective at blocking | pA2 [1]: 9.3 ± 0.04 | atropine and α,β-methylene ATP-resistant component of 5-HT-induced contraction [1]: not abolished

NC1=N[C@H](O)[C@H]2[C@H]3O[C@]4(O)O[C@@H]([C@@H](O)[C@@]2(N1)[C@@H]4O)[C@]3(O)CO [TTX, Tetrodotoxin]
abolition of the responses to field stimulation [3]: complete; also recorded: completely blocks | effect on the 5-HT-induced contraction of the rabbit bladder [1]: did not affect; also recorded: no effect

C[N+](C)(C)CCCCCC[N+](C)(C)C [hexamethonium, Hexamethonium bromide]
effect on the 5-HT-induced contraction of the rabbit bladder [1]: did not affect; also recorded: not blocked

CC[C@@H](CO)NC(=O)[C@@H]1C=C2c3cccc4c3c(cn4C)C[C@H]2N(C)C1 [methysergide, Methysergide bimaleate]
atropine and α,β-methylene ATP-resistant component of 5-HT-induced contraction [1]: not abolished | effect on the contractile response to 5-HT [1]: no significant effect

Cc1ccc(N(CC2=NCCN2)c2cccc(O)c2)cc1 [phentolamine, Phentolamine mesylate]
effect on the 5-HT-induced contraction of the rabbit bladder [1]: did not affect; also recorded: not blocked

COc1cc2nc(N3CCN(C(=O)c4ccco4)CC3)nc(N)c2cc1OC [prazosin, Prazosin hydrochloride]
effect on the 5-HT-induced contraction of the rabbit bladder ([1]; hydrochloride): did not affect; also recorded: not blocked

Nc1ncnc2c1ncn2C1OC(COP(=O)(O)CP(=O)(O)OP(=O)(O)O)C(O)C1O (stereo not drawn) [α,β-methylene ATP, α,β-Methyleneadenosine 5'-Triphosphate]
inhibition of the response to field stimulation ([3]; 10^-6M): about 35% | effect on the response to field stimulation ([3]; atropine 10^-8 to 10^-6M): dose-dependent inhibition | inhibition of the 5-HT contractions [1]: partially inhibited

Ketanserine tartrate
atropine and α,β-methylene ATP-resistant component of 5-HT-induced contraction [1]: not abolished | effect on the contractile response to 5-HT [1]: no effect | effect on the contractile response to 5-HT ([1]; listed as ketanserine): no significant effect

Metitepine monomethanesulfonate
atropine and α,β-methylene ATP-resistant component of 5-HT-induced contraction [1]: not abolished | effect on the contractile response to 5-HT [1]: no significant effect
